From publication PMC4398506, “Remodeling of host phosphatidylcholine by Chlamydia acyltransferase is regulated by acyl-CoA binding protein ACBD6 associated with lipid droplets” (MicrobiologyOpen, 2015)

Molecular target: T1, CT775 (Chlamydia LPCAT) (Chlamydia trachomatis, UniProt O84780)
T1 construct: gene CT_775; full-length gene (253 residues predicted) in pET28a, His-tagged, expressed in E. coli BL21DE3; cleared lysate or membrane fraction, not purified
Test: radiometric TLC assay of […]PC formation from lysoPC
Format: biochemical
Settings: labelled compound; acyl donor with 20 umol/L egg lysoPC; pH 7.0, 37 C, Tween-20

T1 sequence (O84780 entry or part of it): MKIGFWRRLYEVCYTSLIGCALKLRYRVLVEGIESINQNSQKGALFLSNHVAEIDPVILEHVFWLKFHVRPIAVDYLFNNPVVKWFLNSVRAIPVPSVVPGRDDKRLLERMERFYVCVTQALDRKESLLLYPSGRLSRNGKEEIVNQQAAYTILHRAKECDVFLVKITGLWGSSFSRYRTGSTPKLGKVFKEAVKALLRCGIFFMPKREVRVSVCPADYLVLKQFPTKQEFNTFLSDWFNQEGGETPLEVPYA

CCCCCCCC/C=C\CCCCCCCC(=O)SCCNC(=O)CCNC(=O)[C@H](O)C(C)(C)COP(=O)(O)OP(=O)(O)OC[C@H]1O[C@@H](n2cnc3c(N)ncnc32)[C@H](O)[C@@H]1OP(=O)(O)O [C18:1-CoA]
radiometric TLC assay of [14C]PC formation from lysoPC: The rate of PC formation by CT775 was dependent on the concentration of oleoyl-CoA
